Test results taken from ChEMBL document CHEMBL1201862, “PubChem BioAssay data set” (2004).
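Exposure lasted 48 hours, with cells grown in 96-well plates and compounds tested at five concentrations. The concentration for 50% growth inhibition is given as GI50.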 Active and inactive are the calls of the source. No stated cut-off is given here; in the data, active = GI50 up to about 1.1 µM and inactive = higher.

Columns and labels:
Assay in all cases: NCI anticancer screen, dose series, 48 h
[1] = test system: A498
[2] = test system: CAKI-1
[3] = test system: CCRF-CEM
[4] = test system: HCC 2998
[5] = test system: HOP-62
[6] = test system: Hs-578T
[7] = test system: M14
[8] = test system: MDA-MB-435
[9] = test system: NCI-H522
[10] = test system: OVCAR-4
[11] = test system: RXF 393
[12] = test system: SK-MEL-2
[13] = test system: SK-MEL-5
[14] = test system: SN12C
[15] = test system: TK-10
[16] = test system: U-251
[17] = test system: UACC-257
[18] = test system: UACC-62
[19] = test system: LOX IMVI
[20] = test system: SR

Structure (SMILES) | GI50 [1] | GI50 [2] | GI50 [3] | GI50 [4] | GI50 [5] | GI50 [6] | GI50 [7] | GI50 [8] | GI50 [9] | GI50 [10] | GI50 [11] | GI50 [12] | GI50 [13] | GI50 [14] | GI50 [15] | GI50 [16] | GI50 [17] | GI50 [18] | GI50 [19] | GI50 [20]
CNc1c2c(c3nc4ccccc4c4c3c1N=C4)NCCC2=O [PLAKINIDINE A] | 2.67 µM (inactive) | 4.69 µM (inactive) | 1.9 µM (inactive) | 5.08 µM (inactive) | 8.59 µM (inactive) | > 10 µM (inactive) | > 10 µM (inactive) | 5.79 µM (inactive) | 3.27 µM (inactive) | 7.83 µM (inactive) | 5.41 µM (inactive) | > 10 µM (inactive) | 6.55 µM (inactive) | 4.22 µM (inactive) | 8.51 µM (inactive) | 5.87 µM (inactive) | > 10 µM (inactive) | – | – | –
O=C(c1ccc(Cl)cc1)N(C(=S)OC12CC3CC(CC(C3)C1)C2)c1ccccc1 | 64.7 µM (inactive) | 35.2 µM (inactive) | 16.3 µM (inactive) | 31.6 µM (inactive) | 45.5 µM (inactive) | 39.9 µM (inactive) | 34 µM (inactive) | 43.8 µM (inactive) | 21.1 µM (inactive) | 39.5 µM (inactive) | 99.8 µM (inactive) | 30.1 µM (inactive) | 32 µM (inactive) | 45.2 µM (inactive) | 37.1 µM (inactive) | 30.2 µM (inactive) | 46.6 µM (inactive) | 40.6 µM (inactive) | – | –
SCCCSCCSCCCSCCS | – | – | 31.7 µM (inactive) | > 100 µM (inactive) | > 100 µM (inactive) | – | 87.9 µM (inactive) | > 100 µM (inactive) | > 100 µM (inactive) | > 100 µM (inactive) | – | – | 91.6 µM (inactive) | > 100 µM (inactive) | – | > 100 µM (inactive) | > 100 µM (inactive) | > 100 µM (inactive) | > 100 µM (inactive) | 55.7 µM (inactive)
CC[C@H](CC[C@@H](C)[C@H]1CC[C@H]2[C@@H]3CC=C4C[C@@H](O)CC[C@]4(C)[C@H]3CC[C@]12C)C(C)C [BETA-SITOSTEROL] | – | > 100 µM (inactive) | > 100 µM (inactive) | > 100 µM (inactive) | > 100 µM (inactive) | > 100 µM (inactive) | > 100 µM (inactive) | > 100 µM (inactive) | > 100 µM (inactive) | > 100 µM (inactive) | – | > 100 µM (inactive) | > 100 µM (inactive) | > 100 µM (inactive) | > 100 µM (inactive) | > 100 µM (inactive) | > 100 µM (inactive) | – | > 100 µM (inactive) | –
N#C/C(C(=O)Nc1ccccc1)=C(/N)N1CCOCC1 | > 100 µM (inactive) | > 100 µM (inactive) | > 100 µM (inactive) | > 100 µM (inactive) | > 100 µM (inactive) | – | > 100 µM (inactive) | > 100 µM (inactive) | – | – | – | > 100 µM (inactive) | > 100 µM (inactive) | > 100 µM (inactive) | – | > 100 µM (inactive) | > 100 µM (inactive) | > 100 µM (inactive) | > 100 µM (inactive) | > 100 µM (inactive)
COc1ccc(-c2cnoc2-c2ccc(OC)c(OC)c2)cc1OC | 1.6 µM (inactive) | 2.35 µM (inactive) | 1.73 µM (inactive) | 1.05 µM (active) | 1.1 µM (active) | – | 0.851 µM (active) | – | 0.556 µM (active) | 18.9 µM (inactive) | 1.23 µM (inactive) | 1.08 µM (active) | 0.908 µM (active) | 3.04 µM (inactive) | 3.85 µM (inactive) | 2.34 µM (inactive) | 5.53 µM (inactive) | 0.406 µM (active) | 1.42 µM (inactive) | 0.318 µM (active)
O=C1CSC2(CCN(CCCN3c4ccccc4Sc4ccc(Cl)cc43)CC2)N1 | 15.5 µM (inactive) | 12.5 µM (inactive) | – | 3.99 µM (inactive) | 12.9 µM (inactive) | 10.4 µM (inactive) | 6.81 µM (inactive) | 11.4 µM (inactive) | 10.1 µM (inactive) | 10.5 µM (inactive) | 3.07 µM (inactive) | 16.2 µM (inactive) | 11 µM (inactive) | 10.8 µM (inactive) | 9.4 µM (inactive) | 8.51 µM (inactive) | 9.35 µM (inactive) | 11.5 µM (inactive) | 3.88 µM (inactive) | –
CC(=O)c1cccc(NC(=O)C(=O)Nn2c(N)nnc2N)c1 | > 100 µM (inactive) | > 100 µM (inactive) | > 100 µM (inactive) | > 100 µM (inactive) | > 100 µM (inactive) | – | > 100 µM (inactive) | – | > 100 µM (inactive) | > 100 µM (inactive) | > 100 µM (inactive) | > 100 µM (inactive) | > 100 µM (inactive) | > 100 µM (inactive) | > 100 µM (inactive) | > 100 µM (inactive) | > 100 µM (inactive) | > 100 µM (inactive) | > 100 µM (inactive) | > 100 µM (inactive)
